The values below come from patent US12138320B2, “Composition and methods for tumor imaging and treatment” (The University of Chicago, priority 2020, dated 2024).

One data set concerns the target T1, NCEH1 (Homo sapiens, UniProt Q6PIU2).
T1 construct: serine hydrolase activity in membrane proteome fractions of MDA-MB231 breast cancer cells treated with the indicated concentrations; endogenous in cells; host or cells: PC3 prostate cancer cells; MDA-MB231 breast cancer cells
T1 sequence (Q6PIU2 1-408): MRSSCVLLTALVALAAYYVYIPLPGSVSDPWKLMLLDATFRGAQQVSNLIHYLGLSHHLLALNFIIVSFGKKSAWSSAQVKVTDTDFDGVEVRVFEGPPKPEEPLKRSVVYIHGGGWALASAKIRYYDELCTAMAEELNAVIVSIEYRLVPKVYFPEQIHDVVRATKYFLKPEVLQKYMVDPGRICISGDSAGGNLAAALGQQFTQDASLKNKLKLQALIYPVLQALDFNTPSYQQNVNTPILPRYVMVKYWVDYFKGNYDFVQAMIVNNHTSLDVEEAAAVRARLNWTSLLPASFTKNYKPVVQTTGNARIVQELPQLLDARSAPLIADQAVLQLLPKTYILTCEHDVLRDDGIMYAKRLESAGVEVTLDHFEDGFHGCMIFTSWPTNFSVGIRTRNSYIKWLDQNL
Description: Gel-based competitive ABPP (FP-Rho) of cancer cells treated in situ (live cells). To be noted: live cells. It is filed as cell-based. The procedure: Proteome Preparation: Human PC3 and MDA-MB231 cells were grown in Roswell Park Memorial Institute (RPMI) medium and Dulbecco's Modified Eagle Medium (DMEM), respectively, supplemented with 10% fetal bovine serum (FBS) and 2 mM L-glutamine, and cultured in a humidified 5% CO2 incubator at 37° C. Cells were washed twice with phosphate buffered saline (PBS, pH 7.5), collected by scraping, resuspended in 0.2 ml PBS, sonicated, and fractionated via centrifugation (100,000×g, 45 min) into a pellet (containing membrane proteins) and supernatant (containing soluble proteins). For murine proteomes, mouse tissues were Dounce-homogenized on ice in cold PBS, followed by a low-speed spin (1,400×g, 5 min) to remove debris. After sonication, the membrane and soluble proteomes were fractionated as described above. All sample pellets were washed and resuspended in PBS via sonication. Protein concentrations were determined using a Bradford protein assay kit (Bio-Rad, Hercules, California, United States of America)). Samples were stored at −80° C. until use.
Cellular JW199 Treatments: JW199 was dissolved in dimethyl sulfoxide (DMSO) vehicle, which was diluted into media or buffer before addition to cells or proteomes, respectively. For in vitro proteome experiments, the final DMSO concentration was 4%. For live cell (in situ) treatments, 2×10^6 cells were seeded in 6 cm dishes (100% confluency) 24 hours prior to JW199 treatment in serum-free media. At the end of the experiment, cells were washed and collected, as described above, for gel-based activity profiling.
Gel-based Activity Profiling: Cell lysates were treated with 1 μM fluorophosphonate-rhodamine (FP-rho) for 30 min at room temperature (50 μL total reaction volume). Reactions were quenched with one volume of standard 4× sodium dodecyl sulfate/polyacrylamide gel electrophoresis (SDS/PAGE) reducing sample buffer, resolved on 10% acrylamide SDS/PAGE gels, and visualized in-gel with a fluorescence scanner sold under the tradename CHEMIDOC™ MP (Bio-Rad, Hercules, California, United States of America). Densitometric quantification of band intensities were used to calculate the percent inhibition via JW199. 50% inhibitory concentration (IC50) values were determined from dose-response curves constructed in GraphPad Prism software from three independent replicates for each inhibitor concentration. For competitive ABPP with JW576, tumor lysates were treated with 1 μM JW576 for 30 min at 37° C. (50 μL total reaction volume). Competitive ABPP was then conducted as described above. NCEH1 activity was calculated by densitometric quantification (ImageJ software; National Institutes of Health (NIH), Bethesda, Maryland, United States of America) of JW576-labeled band intensity (BODIPY fluorescence) from three independent replicates.

The nature of data set [1]: Radiochemical stability by radioactive HPLC. It is filed as physicochemical. To be noted: physiologic buffers; PBS containing 10% ethanol, up to 120 min. On the procedure: Stability analyses of HPLC-purified […]: Radiochemical stability testing of the synthesized [^18F]JW199, was performed with multiple HPLC injections using increasing amounts of activity to keep the peak heights roughly similar. 64 μCi was injected 83 minutes post synthesis, and this was considered the t=0 time point. The subsequent injection was 79 μCi at 30-minutes, followed by three more injections of 86, 106, and 117 μCi at 60, 90, and 120-minutes respectively.

For the compound `CC(C)c1ccccc1OC(=O)NCCc1ccc(OCC[18F])cc1` [[^18F]JW199, fluorine-18-labeled 2-isopropylphenyl-(4-(2-fluoroethoxy)phenethyl)carbamate], the “concentrations at which active NCEH1 is labeled in live cells” value at NCEH1 is on record as “nM concentrations”. Moreover, the chemical stability result in data set [1] is “chemically stable”.
